Assay results published in article PMC6121902, “Conjugation with Dihydrolipoic Acid Imparts Caffeic Acid Ester Potent Inhibitory Effect on Dopa Oxidase Activity of Human Tyrosinase” (International Journal of Molecular Sciences, 2018).
Where “and” joins values, the source holds several entries; their conditions need not be identical. Equal values may be shown once. Read-outs that look alike come from different tables or passages of the source.

Legend:
tyrosinase = test: Tyrosinase expression by Western blot (αPEP7), with or without NDP-MSH; assay type: cell-based, human
Method: Control HBL cells or cells grown in the presence of CAME (25 µM) or LCAME (25 or 50 µM) were stimulated for 48 h with a potent analogue of αMSH ([Nle^4,D-Phe^7]-α-MSH (NDP-MSH), 10^−7 M). Use of the 50 μM concentration of CAME was avoided since this concentration was somewhat cytotoxic as shown above. Expression of tyrosinase was then evaluated by Western blot using a specific antibody directed against tyrosinase (αPEP7). […] However, other mechanisms such as interference with activation and/or functional coupling of the melanocortin 1 receptor responsible for αMSH actions cannot be ruled out and a complete study of these possibilities is beyond the scope of this work. Accordingly, interference of LCAME with MITF expression or activity remains speculative at this stage. In any case, this preliminary observation deserves confirmation using cultured normal human melanocytes and further mechanistic analysis, as it may further support the potential use of LCAME as a skin depigmenting agent. Indeed, LCAME may act at two different levels, on one hand by inhibiting preexisting tyrosinase by a competitive mechanism, and on the other hand by interfering with αMSH-dependent induction of tyrosinase expression.
Figure 5 Effect on tyrosinase expression of CAME (25 µM) and LCAME (25 and 50 µM). HBL melanoma cells were incubated with or without the indicated compounds and stimulated with NDP-MSH (10^−7 M). After 48 h of treatment, tyrosinase levels were compared by Western blotting, performed as described in Materials and Methods. […] For each experimental condition, the fold-increase of tyrosinase abundance upon NDP-MSH treatment relative to the corresponding control was determined by densitometric analysis (ImageJ software) and is shown below the figure.
After protein separation by SDS-PAGE, they were transferred from the gel to the membrane and immunochemical detection with anti-PEP7 was performed as previously described. Briefly, the filters were blocked for 1 h in 2% bovine serum albumin in 1% Tween 20 PBS and incubated overnight at 4 °C with primary antibodies (1:4000 dilution). The filters were washed and further incubated with peroxidase-labeled mouse anti-rabbit IgG (1:5000 dilution). Staining and detection were done with ECL Plus Western Blotting Detection System chemiluminescent substrate (Thermo Fisher Scientific, Waltham, MA, USA). Images were acquired in a Fusion Solo.6S system (Vilber-Lourmat, Marne La Vallée, France). Signal intensities were estimated with ImageJ (National Institutes of Health, Bethesda, […], USA) in independent blots, and normalized with the corresponding loading controls (obtained by staining the membranes with an anti-ERK2 antibody).

mushroom tyrosinase [1] = test: Consumption of inhibitor by mushroom tyrosinase (substrate test, HPLC); assay type: biochemical; details: 100 μM, 10 min
Method: Some tyrosinase inhibitors are also substrates of the enzyme and this is a critical issue because their oxidation can lead to the formation of highly reactive, cytotoxic o-quinones. To rule out this possibility, either LCAME or CAME at 100 μM were exposed to mushroom tyrosinase, in the absence of L-DOPA, and after 10 min, the reaction mixtures were analyzed by HPLC. […] HPLC analyses for determination of the consumption of CAME and LCAME in the presence of mushroom tyrosinase were performed on a Agilent 1100 binary pump instrument equipped with a UV-visible detector using an octadecylsilane-coated column, 250 mm × 4.6 mm, 5 μm particle size (Phenomenex Sphereclone ODS, Bologna, Italy) at 0.7 mL/min, using the following gradient: 0.1% formic acid (eluant a)/ methanol (eluant b): 40% b, 0–10 min; from 40 to 80% b, 47.5–52.5 min; from 80 to 40% b, 52.5–57.5 min. Detection wavelength was set at 280 nm. Stock methanolic solutions of LCAME or CAME, ranging in concentration from 0.02 to 20 mM concentration were prepared dissolving a proper amount of the compound of interest in methanol. 100 μL of these solutions were added to 2 mL of 50 mM phosphate buffer at pH 6.8 (final concentrations range: 0.001–1 mM), in the presence or in the absence of 20 U/mL mushroom tyrosinase. After 10 min incubation at room temperature, 20 μL of a 100 mM solution of L-DOPA or L-tyrosine in 0.6 M HCl, were added (final concentration: 1 mM). Spectrophotometric analysis was performed by measuring the absorbance at 475 nm for 10 min at 2 min intervals. In control experiments, the reaction was run in the absence of LCAME. When required, the experiment was performed as above but adding L-DOP A soon after the addition of LCAME ([…]). In separate experiments, the assay was run as above with LCAME or CAME at 100 μM, in the presence or absence of L-DOPA, and after 10 min the mixture was analyzed by HPLC.

mushroom tyrosinase [2] = test: Mushroom tyrosinase TH activity inhibition (dopachrome formation at 475 nm, L-tyrosine substrate); assay type: biochemical; details: 10 min pre-incubation, L-tyrosine 1 mM, tyrosinase 20 U/mL, pH 6.8
Method: The inhibition properties of LCAME were preliminarily investigated on mushroom tyrosinase by spectrophotometric monitoring of dopachrome formation, a method which is routinely used for evaluation of the activity of potential tyrosinase inhibitors. L-DOPA was used as the substrate to test DO activity while L-tyrosine was used to test TH activity. LCAME was incubated in 50 mM phosphate buffer in the presence of mushroom tyrosinase (20 U/mL) at room temperature. After 10 min, L-DOPA or L-tyrosine (1 mM final concentration) were added and the absorbance at 475 nm was measured at different times over 10 min. For comparative purposes the effects of CAME were evaluated as well. Stock methanolic solutions of LCAME or CAME, ranging in concentration from 0.02 to 20 mM concentration were prepared dissolving a proper amount of the compound of interest in methanol. 100 μL of these solutions were added to 2 mL of 50 mM phosphate buffer at pH 6.8 (final concentrations range: 0.001–1 mM), in the presence or in the absence of 20 U/mL mushroom tyrosinase. […] Spectrophotometric analysis was performed by measuring the absorbance at 475 nm for 10 min at 2 min intervals. […] In separate experiments, the assay was run as above with LCAME or CAME at 100 μM, in the presence or absence of L-DOPA, and after 10 min the mixture was analyzed by HPLC.

mushroom tyrosinase [3] = test: Mushroom tyrosinase DO activity inhibition (dopachrome formation at 475 nm, L-DOPA substrate); assay type: biochemical; details: 10 min pre-incubation, L-DOPA 1 mM, tyrosinase 20 U/mL, pH 6.8
Method: The inhibition properties of LCAME were preliminarily investigated on mushroom tyrosinase by spectrophotometric monitoring of dopachrome formation, a method which is routinely used for evaluation of the activity of potential tyrosinase inhibitors. L-DOPA was used as the substrate to test DO activity while L-tyrosine was used to test TH activity. LCAME was incubated in 50 mM phosphate buffer in the presence of mushroom tyrosinase (20 U/mL) at room temperature. After 10 min, L-DOPA or L-tyrosine (1 mM final concentration) were added and the absorbance at 475 nm was measured at different times over 10 min. For comparative purposes the effects of CAME were evaluated as well. Stock methanolic solutions of LCAME or CAME, ranging in concentration from 0.02 to 20 mM concentration were prepared dissolving a proper amount of the compound of interest in methanol. 100 μL of these solutions were added to 2 mL of 50 mM phosphate buffer at pH 6.8 (final concentrations range: 0.001–1 mM), in the presence or in the absence of 20 U/mL mushroom tyrosinase. After 10 min incubation at room temperature, 20 μL of a 100 mM solution of L-DOPA or L-tyrosine in 0.6 M HCl, were added (final concentration: 1 mM). Spectrophotometric analysis was performed by measuring the absorbance at 475 nm for 10 min at 2 min intervals. In control experiments, the reaction was run in the absence of LCAME. When required, the experiment was performed as above but adding L-DOP A soon after the addition of LCAME ([…]). In separate experiments, the assay was run as above with LCAME or CAME at 100 μM, in the presence or absence of L-DOPA, and after 10 min the mixture was analyzed by HPLC.

HBL cells [4] = test: Phase contrast microscopy of cell morphology; assay type: cell-based, human; details: 50 μM, 24 h
Method: (§1) The effect of the inhibitors on cell viability was evaluated by phase contrast microscopy and by means of the 3-(4,5-dimethyl-2-thiazolyl)-2,5-diphenyl-2H-tetrazolium bromide (MTT) assay. HBL cells were treated with the compounds (25 or 50 μM) for 24 h. At the end of the incubation period, phase contrast images were taken and the MTT assay was performed to test the cytotoxicity of each compound.
(§2) Figure 4 Effect of caffeic acid derivatives on the viability of HBL cells. Cells were incubated for 24 h with the inhibitors at 25 or 50 µM. (a) Phase contrast microscopy images. Representative images are shown (n = 8) Bar size: 50 μm. (b) MTT viability assay. Cells were grown in 96-well plates to ~80% confluence in the presence or absence of the indicated compounds. After 24 h, MTT was added (1 mg/mL final concentration) and maintained in the culture media for 4 h. Cells were PBS-washed twice and solubilized in DMSO. Absorbance at 562 nm was measured and represented as a percentage of the control value. The mean ± SEM of 8 independent experiments is shown. **** p < 0.0001.
Cell viability was measured by the MTT assay. HBL cells were seeded into the wells of a 96-wells plate at a density of 10,000 cells in 200 μL cell culture media. The seeded cells were incubated for 18 h at 37 °C, then treated with the compounds (25 or 50 μM) for 24 h or left untreated. […]

HBL cells [5] = test: MTT viability assay; assay type: cell-based, human; details: 24 h
Method: as §1, §2
Cell viability was measured by the MTT assay. HBL cells were seeded into the wells of a 96-wells plate at a density of 10,000 cells in 200 μL cell culture media. The seeded cells were incubated for 18 h at 37 °C, then treated with the compounds (25 or 50 μM) for 24 h or left untreated. At the end of the incubation period, images were taken and the MTT assay was performed to test the cytotoxicity of the different caffeic acid derivatives.

mushroom tyrosinase [6] = target: mushroom tyrosinase; parameters: method as in PMID 31105178; details: mushroom enzyme; read-out: IC50 (TH Activity); cited from earlier work
human tyrosinase = tested on: T1, human tyrosinase; test: TH activity of human tyrosinase; assay type: biochemical; details: compared with DO activity
T1 construct: endogenous in cells

mushroom tyrosinase [7] = tested on: mushroom tyrosinase; parameters: method as in PMID 31105178; details: cited from earlier work
mushroom tyrosinase [8] = tested on: mushroom tyrosinase; parameters: method as in PMID 31105178; details: cited from earlier work; remark: listed apart in the source
[9] = target: T2, tyrosinase from HBL human melanoma cells (Homo sapiens, UniProt P14679); test: DO activity of human tyrosinase in HBL cell extracts (MBTH assay, 490 nm); assay type: biochemical; details: HBL cell extracts
T2 construct: endogenous in cells; host or cells: HBL human melanoma cells (detergent-solubilized cell extract)
T2 sequence (P14679 19-529): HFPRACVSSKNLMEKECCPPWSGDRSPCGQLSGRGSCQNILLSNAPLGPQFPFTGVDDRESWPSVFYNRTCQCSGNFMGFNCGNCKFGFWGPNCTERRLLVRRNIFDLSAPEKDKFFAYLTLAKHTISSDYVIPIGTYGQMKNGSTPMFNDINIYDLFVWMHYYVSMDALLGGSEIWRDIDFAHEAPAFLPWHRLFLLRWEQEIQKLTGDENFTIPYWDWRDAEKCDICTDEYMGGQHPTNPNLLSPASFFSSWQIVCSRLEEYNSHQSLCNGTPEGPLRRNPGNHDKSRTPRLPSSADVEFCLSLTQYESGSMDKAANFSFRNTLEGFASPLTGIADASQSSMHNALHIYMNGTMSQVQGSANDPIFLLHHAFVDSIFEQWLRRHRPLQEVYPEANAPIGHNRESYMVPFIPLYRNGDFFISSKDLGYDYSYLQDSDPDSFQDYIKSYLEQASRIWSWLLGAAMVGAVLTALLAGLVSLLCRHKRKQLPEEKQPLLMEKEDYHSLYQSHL
Method: In further experiments, the effect of LCAME and LCA was investigated on extracts from HBL human melanoma cells expressing tyrosinase, and the inhibition of DO activity was evaluated. DO activity was determined according to Winder and Harris with some minor modifications: cell extracts were incubated with 3-methyl-2-benzothiazolinone hydrazone (MBTH) and absorbance at 490 nm was measured every 10 min for 1 h.
Cells were solubilized in 1% Igepal, 1% phenylmethylsulfonyl fluoride, 50 mM phosphate buffer (pH 6.8) and centrifuged at 2000 rpm for 5 min.
DO activity determinations were performed according to Winder and Harris with minor modifications. Briefly, cell extracts (usually 50–100 µg protein/assay) were incubated with 5 mM MBTH and 2.5 mM L-DOPA in 50 mM phosphate buffer pH 6.8 in the presence of the indicated concentrations of the compound of choice in a 96-wells plate. DO activity was measured spectrophotometrically in a microplate reader every ten minutes for one hour and was expressed as the slopes calculated with the GraphPad Prism 7 software (Linear Regression, San Diego, CA, USA).
For the analysis of kinetic parameters, the assays were run as above, using different concentrations of L-DOPA (from 0.1 to 2.0 mM) and of the inhibitor (0, 10 and 25 μM) to build the Lineweaver–Burk plot.

Compound | NDP-MSH-mediated induction of tyrosinase expression (tyrosinase; 25 µM, NDP-MSH 10^−7 M, 48 h) | basal tyrosinase expression (tyrosinase; HBL cells, CAME 25 µM or LCAME 25 or 50 µM, Western blot) | consumption of the inhibitor (mushroom tyrosinase [1]; absence of L-DOPA) | consumption of the inhibitor (mushroom tyrosinase [1]; presence of L-DOPA) | IC50 (mushroom tyrosinase [2]) | IC50 (mushroom tyrosinase [3]) | cell morphology (phase contrast) (HBL cells [4]) | cell viability (MTT) (HBL cells [5]; 50 μM) | IC50 (mushroom tyrosinase [6]) | effect on TH activity of human tyrosinase (human tyrosinase) | substrate of tyrosinase (mushroom tyrosinase [7]) | nature of tyrosinase inhibition (Lineweaver–Burk plots) (mushroom tyrosinase [8]) | IC50 (mushroom tyrosinase [8]; mushroom enzyme, read-out: IC50 (DO Activity)) | IC50 ([9]; DO activity, L-DOPA 2.5 mM, read-out: IC50 (Mean ± SEM)) | inhibitory effect on DO activity ([9]; fixed concentration of 25 μM) | cytotoxicity (MTT) (HBL cells [5]; 25 or 50 μM)
COC(=O)/C=C/c1ccc(O)c(O)c1 [CAME, caffeic acid methyl ester, reference compound] | similarly induced | No significant changes | almost complete | extremely low | 79 ± 7 µM | 155 ± 7 µM | became rounded | reduced cell viability |  |  |  |  |  |  |  | 
O=C(O)/C=C/c1ccc(O)c(O)c1SCCC(S)CCCCC(=O)O (stereo not shown) [LCA, 2-S-lipoylcaffeic acid] |  |  |  |  |  |  |  |  | 2 ± 0.1 µM | much smaller | not to be a substrate of tyrosinase | mixed type mechanism | 3.22 ± 0.02 µM | 76 µM and 76.2 µM | significant inhibitory effect | not cytotoxic
